Assay results reported in patent US11319299B2, “Substituted carboxamides as inhibitors of WDR5 protein-protein binding” (PROPELLON THERAPEUTICS INC., priority 2016, dated 2022).
pKd: −log10 of the molar value.

Target: WDR5 (Homo sapiens (Human), UniProt P61964)
Experiment: Surface Plasmon Resonance (SPR) assay, KD and residence time
Type: binding
Details: surface plasmon resonance (SPR) assay; read-out: WDR5 binding affinity (KD)

| Molecule | pKd |
| --- | --- |
| CC1CN(c2cc(F)c(-c3cnc(N4CCN(C)CC4)nc3)cc2NC(=O)c2ccc(F)cc2C(F)(F)F)CCN1C (stereo in doubt) [Example 316, 4-fluoro-N-[4-fluoro-5-[2-(4-methylpiperazin-1-yl)pyrimidin-5-yl]-2-[(3R)-3,4-dimethylpiperazin-1-yl]phenyl]-2-(trifluoromethyl)benzamide] | 9.00 |
| C[C@@H]1CN(c2cc(F)c(C3CCN(C(=O)C(C)(C)C)CC3)cc2NC(=O)c2c[nH]c(=O)cc2C(F)(F)F)C[C@H](C)N1C [Example 244, N-[5-[1-(2,2-dimethylpropanoyl)piperidin-4-yl]-4-fluoro-2-[(3R,5S)-3,4,5-trimethylpiperazin-1-yl]phenyl]-6-oxo-4-(trifluoromethyl)-1H-pyridine-3-carboxamide] | 8.71 |
| C[C@@H]1CN(c2cc(F)c(-c3cnc(N4CCOCC4)nc3)cc2NC(=O)c2cc(C(F)(F)F)ccc2F)C[C@H](C)N1C [Example 189, 2-fluoro-N-[4-fluoro-5-(2-morpholin-4-ylpyrimidin-5-yl)-2-[(3R,5S)-3,4,5-trimethylpiperazin-1-yl]phenyl]-5-(trifluoromethyl)benzamide] | 6.35 |
| C[C@@H]1CN(c2ncc(-c3cc(NC(=O)c4c[nH]c(=O)cc4C(F)F)c(N4CCN(C)[C@@H](C)C4)cc3F)cn2)CCO1 [Example 396, 4-(difluoromethyl)-N-[4-fluoro-2-[(3S)-3,4-dimethylpiperazin-1-yl]-5-[2-[(2R)-2-methylmorpholin-4-yl]pyrimidin-5-yl]phenyl]-6-oxo-1H-pyridine-3-carboxamide] | 9.25 |

Now from value to molecule:

| pKd | Molecule |
| --- | --- |
| 9.21 | C[C@@H]1CN(c2cc(F)c(-c3ccc4c(c3)OCCN4C)cc2NC(=O)c2c[nH]c(=O)cc2C(F)(F)F)C[C@H](C)N1C [Example 71, N-[4-fluoro-5-(4-methyl-2,3-dihydro-1,4-benzoxazin-7-yl)-2-[(3R,5S)-3,4,5-trimethylpiperazin-1-yl]phenyl]-6-oxo-4-(trifluoromethyl)-1H-pyridine-3-carboxamide] |
| 9.20 | C[C@@H]1CN(c2cc(F)c(-c3cnc(N(C)C4CCOC4)nc3)cc2NC(=O)c2c[nH]c(=O)cc2C(F)(F)F)C[C@H](C)N1C (stereo in doubt) [Example 363, N-[4-fluoro-5-[2-[methyl-[(3R)-oxolan-3-yl]amino]pyrimidin-5-yl]-2-[(3S,5R)-3,4,5-trimethylpiperazin-1-yl]phenyl]-6-oxo-4-(trifluoromethyl)-1H-pyridine-3-carboxamide] |
| 8.41 | CCC(C)N1CC=C(c2cc(NC(=O)c3c[nH]c(=O)cc3C(F)(F)F)c(N3C[C@@H](C)N(C)[C@@H](C)C3)cc2F)CC1 (stereo partly drawn) [Example 233, N-[5-(1-butan-2-yl-3,6-dihydro-2H-pyridin-4-yl)-4-fluoro-2-[(3R,5S)-3,4,5-trimethylpiperazin-1-yl]phenyl]-6-oxo-4-(trifluoromethyl)-1H-pyridine-3-carboxamide] |
| 7.24 | COc1cc(=O)[nH]cc1C(=O)Nc1cc(-c2cnc(N3CCOCC3)nc2)c(F)cc1N1C[C@@H](C)N(C)[C@@H](C)C1 [Example 65, N-[4-fluoro-5-(2-morpholin-4-ylpyrimidin-5-yl)-2-[(3R,5S)-3,4,5-trimethylpiperazin-1-yl]phenyl]-4-methoxy-6-oxo-1H-pyridine-3-carboxamide] |
| 9.36 | C[C@@H]1CN(c2cc(F)c(-c3ccc(N4CCOCC4)c(F)c3)cc2NC(=O)c2c[nH]c(=O)cc2C(F)(F)F)C[C@H](C)N1C [Example 124, N-[4-fluoro-5-(3-fluoro-4-morpholin-4-ylphenyl)-2-[(3R,5S)-3,4,5-trimethylpiperazin-1-yl]phenyl]-6-oxo-4-(trifluoromethyl)-1H-pyridine-3-carboxamide] |
| 9.77 | C[C@@H]1CN(c2cc(F)c(-c3cnc(N(C)C)nc3)cc2NC(=O)c2c[nH]c(=O)cc2C(F)(F)F)C[C@H](C)N1C [Example 103, N-[5-[2-(dimethylamino)pyrimidin-5-yl]-4-fluoro-2-[(3R,5S)-3,4,5-trimethylpiperazin-1-yl]phenyl]-6-oxo-4-(trifluoromethyl)-1H-pyridine-3-carboxamide] |
| 9.15 | C[C@@H]1CN(c2cc(F)c(-c3cccc(N4CCOCC4)c3)cc2NC(=O)c2c[nH]c(=O)cc2C(F)(F)F)C[C@H](C)N1C [Example 85, N-[4-fluoro-5-(3-morpholin-4-ylphenyl)-2-[(3R,5S)-3,4,5-trimethylpiperazin-1-yl]phenyl]-6-oxo-4-(trifluoromethyl)-1H-pyridine-3-carboxamide] |
| 8.94 | C[C@@H]1CN(c2cc(F)c(-c3ccnc(OCC4CC4)c3)cc2NC(=O)c2c[nH]c(=O)cc2C(F)(F)F)C[C@H](C)N1C [Example 66, N-[5-[2-(cyclopropylmethoxy)pyridin-4-yl]-4-fluoro-2-[(3R,5S)-3,4,5-trimethylpiperazin-1-yl]phenyl]-6-oxo-4-(trifluoromethyl)-1H-pyridine-3-carboxamide] |
| 8.87 | C[C@@H]1CN(c2cc(F)c(-c3cnc(N4CCOCC4)c(Cl)c3)cc2NC(=O)c2c[nH]c(=O)cc2C(F)(F)F)C[C@H](C)N1C [Example 222, N-[5-(5-chloro-6-morpholin-4-ylpyridin-3-yl)-4-fluoro-2-[(3R,5S)-3,4,5-trimethylpiperazin-1-yl]phenyl]-6-oxo-4-(trifluoromethyl)-1H-pyridine-3-carboxamide] |

Same assay, conditions: surface plasmon resonance (SPR); read-out: WDR5 binding affinity (KD)

| Molecule | pKd |
| --- | --- |
| C[C@@H]1CN(c2cc(F)c(-c3cc(C(=O)NC(C)(C)CC(C)(C)C)c(F)cc3F)cc2NC(=O)c2c[nH]c(=O)cc2C(F)(F)F)C[C@H](C)N1C [Example 626, N-[5-[2,4-difluoro-5-(2,4,4-trimethylpentan-2-ylcarbamoyl)phenyl]-4-fluoro-2-[(3R,5S)-3,4,5-trimethylpiperazin-1-yl]phenyl]-6-oxo-4-(trifluoromethyl)-1H-pyridine-3-carboxamide] | 8.28 |
| CC1CN(c2cc(F)c(-c3cnc(N4CCN(C5CC5)CC4)nc3)cc2NC(=O)c2ccc(F)cc2C(F)(F)F)CCN1C (stereo in doubt) [Example 435, N-[5-[2-(4-cyclopropylpiperazin-1-yl)pyrimidin-5-yl]-4-fluoro-2-[(3R)-3,4-dimethylpiperazin-1-yl]phenyl]-4-fluoro-2-(trifluoromethyl)benzamide] | 8.83 |
| N-[4-fluoro-5-[2-[(2R,6S)-2,6-dimethylmorpholin-4-yl]pyrimidin-4-yl]-2-[(3R)-3,4-dimethylpiperazin-1-yl]phenyl]-6-oxo-4-(trifluoromethyl)-1H-pyridine-3-carboxamide [Example 698] | 8.80 |
| CCc1ccc(N2CC=C(c3cc(NC(=O)c4c[nH]c(=O)cc4C(F)(F)F)c(N4C[C@@H](C)N(C)[C@@H](C)C4)cc3F)CC2)nn1 [Example 504, N-[5-[1-(6-ethylpyridazin-3-yl)-3,6-dihydro-2H-pyridin-4-yl]-4-fluoro-2-[(3R,5S)-3,4,5-trimethylpiperazin-1-yl]phenyl]-6-oxo-4-(trifluoromethyl)-1H-pyridine-3-carboxamide] | 8.61 |
| CCN(C)[C@@H]1CCN(c2cc(F)c(-c3cnc(N4C[C@@H](C)O[C@@H](C)C4)nc3)cc2NC(=O)c2cn(C)c(=O)cc2C(F)(F)F)C1 (racemic) [Example 427, N-[4-fluoro-5-[2-[(2R,6S)-2,6-dimethylmorpholin-4-yl]pyrimidin-5-yl]-2-[(3S)-3-[ethyl(methyl)amino]pyrrolidin-1-yl]phenyl]-1-methyl-6-oxo-4-(trifluoromethyl)pyridine-3-carboxamide] | 8.25 |
| CC1CN(c2cc(F)c(-c3ccc(F)c(C(N)=O)c3)cc2NC(=O)c2c[nH]c(=O)cc2C(F)F)CCN1C (stereo in doubt) [Example 596, N-[5-(3-carbamoyl-4-fluorophenyl)-4-fluoro-2-[(3R)-3,4-dimethylpiperazin-1-yl]phenyl]-4-(difluoromethyl)-6-oxo-1H-pyridine-3-carboxamide] | 8.39 |
| CCN(CC)[C@@H]1CCN(c2cc(F)c(-c3cnc(N4CCOCC4)nc3)cc2NC(=O)c2cn(C)c(=O)cc2C(F)(F)F)C1 [Example 428, N-[4-fluoro-5-(2-morpholin-4-ylpyrimidin-5-yl)-2-[(3R)-3-(diethylamino)pyrrolidin-1-yl]phenyl]-1-methyl-6-oxo-4-(trifluoromethyl)pyridine-3-carboxamide] | 6.84 |
| C[C@@H]1CN(c2cc(F)c(C3=CCCN(c4nc(C#N)cs4)C3)cc2NC(=O)c2c[nH]c(=O)cc2C(F)(F)F)C[C@H](C)N1C [Example 642, N-[5-[1-(4-cyano-1,3-thiazol-2-yl)-3,6-dihydro-2H-pyridin-5-yl]-4-fluoro-2-[(3R,5S)-3,4,5-trimethylpiperazin-1-yl]phenyl]-6-oxo-4-(trifluoromethyl)-1H-pyridine-3-carboxamide] | 8.89 |

More lines, now with the values ahead:

| pKd | Molecule |
| --- | --- |
| 8.53 | C[C@@H]1CN(c2cc(F)c(C3=CCN(c4ncc(C=O)cn4)C3)cc2NC(=O)c2c[nH]c(=O)cc2C(F)(F)F)C[C@H](C)N1C [Example 444, N-[4-fluoro-5-[1-(5-formylpyrimidin-2-yl)-2,5-dihydropyrrol-3-yl]-2-[(3R,5S)-3,4,5-trimethylpiperazin-1-yl]phenyl]-6-oxo-4-(trifluoromethyl)-1H-pyridine-3-carboxamide] |
| 9.06 | C[C@@H]1CN(c2cc(F)c(C3=CCCN(c4ncc(C#N)cn4)C3)cc2NC(=O)c2c[nH]c(=O)cc2C(F)(F)F)C[C@H](C)N1C [Example 583, N-[5-[1-(5-cyanopyrimidin-2-yl)-3,6-dihydro-2H-pyridin-5-yl]-4-fluoro-2-[(3R,5S)-3,4,5-trimethylpiperazin-1-yl]phenyl]-6-oxo-4-(trifluoromethyl)-1H-pyridine-3-carboxamide] |
| 8.76 | C[C@@H]1CN(c2cc(F)c(C3=CCN(c4ncc(C#N)cn4)C3)cc2NC(=O)c2c[nH]c(=O)cc2C(F)(F)F)C[C@H](C)N1C [Example 588, N-[5-[1-(5-cyanopyrimidin-2-yl)-2,5-dihydropyrrol-3-yl]-4-fluoro-2-[(3R,5S)-3,4,5-trimethylpiperazin-1-yl]phenyl]-6-oxo-4-(trifluoromethyl)-1H-pyridine-3-carboxamide] |
